Source: ChEMBL document CHEMBL1201862, “PubChem BioAssay data set” (2004)
The source made the active and inactive calls.

Assays:
Streptococcus [1] = assay: Luminescence Microorganism-Based Dose Response Follow up to Identify Compounds Cytotoxic to Streptococcus. [Related pubchem assays: 1677 (Project Summary), 1915, 1914, 1902 (Retest at Dose), 1900 (Counter Screen), 1662 (Primary HTS)]; type: functional, organism-based
[2] = tested on: Streptococcus sp. 'group A'; assay: Streptococcus pyogenes SK(-)GAS viability under kanamycin – luminescence, BacTiterGlo, confirmation, counter-screen for streptokinase expression inhibitor project, dose response (AID 1900); type: functional, organism-based
Streptococcus [3] = assay: GAS UMAA2166 growth inhibition – luminescence, BacTiterGlo, counter-screen for streptokinase expression inhibitor project, dose response (AID 1915); type: functional, organism-based;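 note: potency for reduction of bacterial viability or growth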
Streptokinase A = target: T1, Streptokinase A (Streptococcus pyogenes serotype M1, UniProt P10520); assay: viability-normalized secreted streptokinase activity reduction – plasminogen activation absorbance, OD405, dose response (AID 1914); type: functional, Streptococcus pyogenes M1 GAS;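 note: secreted streptokinase activity via plasminogen activation per viability signal from cell pellet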
T1 sequence (P10520 whole entry): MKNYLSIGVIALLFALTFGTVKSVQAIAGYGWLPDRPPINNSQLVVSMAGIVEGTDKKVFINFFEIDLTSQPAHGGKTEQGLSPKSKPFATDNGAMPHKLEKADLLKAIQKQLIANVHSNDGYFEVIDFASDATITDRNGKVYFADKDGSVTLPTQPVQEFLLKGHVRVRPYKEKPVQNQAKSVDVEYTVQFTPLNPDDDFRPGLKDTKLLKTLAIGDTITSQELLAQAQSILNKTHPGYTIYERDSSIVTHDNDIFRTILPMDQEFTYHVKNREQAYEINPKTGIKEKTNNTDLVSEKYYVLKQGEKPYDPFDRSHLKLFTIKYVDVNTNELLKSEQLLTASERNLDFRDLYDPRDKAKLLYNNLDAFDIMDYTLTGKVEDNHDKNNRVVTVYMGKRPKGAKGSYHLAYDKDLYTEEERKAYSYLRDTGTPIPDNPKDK

[4] = Luminescence Cell-Based Dose Confirmation HTS to Identify Inhibitors of Platelet Dense Granule Release. [Related pubchem assays: 1663 (Primary HTS), 1678 (Summary of Project)]; type: functional
HT-1080 = assay: HT1080 cell viability loss – fluorescence readout (AID 620); type: functional, cell-based; settings: Homo sapiens
Protein skinhead-1 = target: T2, Protein skinhead-1 (Caenorhabditis elegans, UniProt P34707); type: functional
T2 sequence (P34707 whole entry): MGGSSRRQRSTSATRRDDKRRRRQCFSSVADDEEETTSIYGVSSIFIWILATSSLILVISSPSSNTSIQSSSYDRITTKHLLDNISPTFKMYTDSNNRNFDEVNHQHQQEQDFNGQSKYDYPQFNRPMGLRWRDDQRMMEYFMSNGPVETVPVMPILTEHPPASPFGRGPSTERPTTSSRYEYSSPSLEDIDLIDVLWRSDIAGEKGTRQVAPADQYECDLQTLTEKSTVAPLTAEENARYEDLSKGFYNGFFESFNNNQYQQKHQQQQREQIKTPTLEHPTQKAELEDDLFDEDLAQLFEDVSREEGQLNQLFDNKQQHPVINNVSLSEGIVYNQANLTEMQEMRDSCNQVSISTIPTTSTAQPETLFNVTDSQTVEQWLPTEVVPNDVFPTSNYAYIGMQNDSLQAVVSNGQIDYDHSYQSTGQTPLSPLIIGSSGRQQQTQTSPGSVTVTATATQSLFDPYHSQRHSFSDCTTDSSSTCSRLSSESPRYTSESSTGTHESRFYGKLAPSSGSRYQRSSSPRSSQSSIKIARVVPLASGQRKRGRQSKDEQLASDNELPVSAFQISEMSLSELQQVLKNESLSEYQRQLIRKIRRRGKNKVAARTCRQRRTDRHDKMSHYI

[5] = target: T3, Luciferin 4-monooxygenase (Photinus pyralis, UniProt P08659); assay: Counter Screen for Luciferase-based Assay Positives. [Related pubchem assays: 620, 618, 411 ]
T3 sequence (P08659 whole entry): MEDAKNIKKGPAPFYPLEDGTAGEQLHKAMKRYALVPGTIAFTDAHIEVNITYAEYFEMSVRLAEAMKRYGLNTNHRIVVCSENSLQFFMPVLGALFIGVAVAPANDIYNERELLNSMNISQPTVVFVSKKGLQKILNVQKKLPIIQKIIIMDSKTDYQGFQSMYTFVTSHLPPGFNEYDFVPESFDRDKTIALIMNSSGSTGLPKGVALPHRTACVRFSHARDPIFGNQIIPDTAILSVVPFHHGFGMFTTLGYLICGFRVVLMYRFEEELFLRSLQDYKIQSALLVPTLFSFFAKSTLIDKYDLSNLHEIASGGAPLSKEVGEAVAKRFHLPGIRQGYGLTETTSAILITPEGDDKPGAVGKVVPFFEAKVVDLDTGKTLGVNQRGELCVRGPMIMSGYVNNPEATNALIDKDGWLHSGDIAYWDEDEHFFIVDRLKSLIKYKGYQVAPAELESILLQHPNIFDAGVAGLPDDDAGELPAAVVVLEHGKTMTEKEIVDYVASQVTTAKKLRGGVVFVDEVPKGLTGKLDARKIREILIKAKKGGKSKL

[6] = target: T3, Luciferin 4-monooxygenase; assay: inhibition of purified Photinus pyralis luciferase – biochemical, luminescence, dose response (AID 1891)
Cytochrome P450 2C9 = Cytochrome P450 2C9 (Homo sapiens, UniProt P11712); settings: Potency
Chain of Cytochrome P450 2C9 (P11712 whole entry): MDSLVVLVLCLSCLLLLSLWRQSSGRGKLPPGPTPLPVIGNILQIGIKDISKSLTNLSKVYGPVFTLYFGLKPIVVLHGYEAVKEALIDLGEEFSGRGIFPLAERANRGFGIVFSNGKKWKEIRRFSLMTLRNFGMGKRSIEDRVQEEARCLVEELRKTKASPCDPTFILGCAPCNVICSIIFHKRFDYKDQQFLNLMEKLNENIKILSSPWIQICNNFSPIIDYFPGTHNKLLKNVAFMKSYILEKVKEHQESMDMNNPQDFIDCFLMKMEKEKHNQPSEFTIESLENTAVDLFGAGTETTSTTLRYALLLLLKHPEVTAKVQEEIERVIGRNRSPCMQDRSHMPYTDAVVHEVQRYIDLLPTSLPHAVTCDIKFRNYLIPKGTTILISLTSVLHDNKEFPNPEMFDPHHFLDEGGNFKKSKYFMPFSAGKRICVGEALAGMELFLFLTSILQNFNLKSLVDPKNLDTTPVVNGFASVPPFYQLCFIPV

[7] = antiviral protection against BTV-induced cell death – arbovirus, BSR cells, confirmation (AID 1250); type: functional;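 note: protection from viral cytopathic effect measured as cell viability by ATP luminescence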
[8] = target: Mothers against decapentaplegic homolog 3 (Homo sapiens, UniProt P84022); assay: blockers of Smad3 complex formation in lysate – cell lysate, secondary confirmation, chemiluminescent ELISA, HEK293 lysate, dose response (AID 1058); type: functional
Chain of Mothers against decapentaplegic homolog 3 (P84022 whole entry): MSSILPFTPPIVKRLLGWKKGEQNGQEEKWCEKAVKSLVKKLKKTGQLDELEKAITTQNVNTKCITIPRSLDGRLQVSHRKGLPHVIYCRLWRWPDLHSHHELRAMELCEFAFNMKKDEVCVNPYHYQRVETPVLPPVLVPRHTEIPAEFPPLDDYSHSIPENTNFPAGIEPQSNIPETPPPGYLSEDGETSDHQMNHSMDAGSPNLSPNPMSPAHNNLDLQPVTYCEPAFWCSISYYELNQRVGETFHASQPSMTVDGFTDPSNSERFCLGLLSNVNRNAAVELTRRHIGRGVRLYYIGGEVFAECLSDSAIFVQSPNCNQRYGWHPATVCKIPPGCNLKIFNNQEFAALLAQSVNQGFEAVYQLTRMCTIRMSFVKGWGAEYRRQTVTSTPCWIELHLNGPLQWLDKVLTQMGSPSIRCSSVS

[9] = target: Induced myeloid leukemia cell differentiation protein Mcl-1 (Homo sapiens, UniProt Q07820); type: functional
Chain of Induced myeloid leukemia cell differentiation protein Mcl-1 (Q07820 whole entry, the tested form may be a part): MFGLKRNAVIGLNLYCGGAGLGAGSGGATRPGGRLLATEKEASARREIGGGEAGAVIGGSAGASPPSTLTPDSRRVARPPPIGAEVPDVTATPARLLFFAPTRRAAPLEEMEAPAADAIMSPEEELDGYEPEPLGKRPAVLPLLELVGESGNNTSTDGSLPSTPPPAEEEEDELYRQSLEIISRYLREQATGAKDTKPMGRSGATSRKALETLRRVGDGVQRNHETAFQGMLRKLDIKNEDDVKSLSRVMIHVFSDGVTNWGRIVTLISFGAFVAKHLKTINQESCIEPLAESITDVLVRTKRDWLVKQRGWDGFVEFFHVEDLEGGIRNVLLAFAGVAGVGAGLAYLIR

[10] = CCR5-tropic HIV-1 fusion blockers – cell-based, CCR5-tropic Env, dose response (AID 2279); type: functional
[11] = target: Neuropeptide Y receptor type 1 (Homo sapiens, UniProt P25929); type: functional;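 note: HEK293 cells with a CNG channel challenged with NPY then isoproterenol; potency as antagonist that reverses NPY suppression of cAMP signal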
Chain of Neuropeptide Y receptor type 1 (P25929 whole entry): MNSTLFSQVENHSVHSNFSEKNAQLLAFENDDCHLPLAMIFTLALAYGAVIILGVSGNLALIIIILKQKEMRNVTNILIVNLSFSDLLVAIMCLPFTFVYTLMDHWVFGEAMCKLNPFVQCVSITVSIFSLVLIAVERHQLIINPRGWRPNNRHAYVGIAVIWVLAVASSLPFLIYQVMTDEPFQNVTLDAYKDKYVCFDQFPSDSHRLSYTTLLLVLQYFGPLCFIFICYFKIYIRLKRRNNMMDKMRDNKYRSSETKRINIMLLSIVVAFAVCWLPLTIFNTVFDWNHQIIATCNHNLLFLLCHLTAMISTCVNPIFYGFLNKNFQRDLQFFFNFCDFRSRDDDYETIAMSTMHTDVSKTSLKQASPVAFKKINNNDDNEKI

[12] = target: Neuropeptide Y receptor type 2 (Homo sapiens, UniProt P49146); type: functional, cell-based;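 note: HEK293 cells expressing the receptor and a CNG channel; stimulus was NPY near EC95 followed by isoproterenol to raise cAMP; antagonist potency measured as restoring cAMP signal that NPY suppresses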
Chain of Neuropeptide Y receptor type 2 (P49146 whole entry): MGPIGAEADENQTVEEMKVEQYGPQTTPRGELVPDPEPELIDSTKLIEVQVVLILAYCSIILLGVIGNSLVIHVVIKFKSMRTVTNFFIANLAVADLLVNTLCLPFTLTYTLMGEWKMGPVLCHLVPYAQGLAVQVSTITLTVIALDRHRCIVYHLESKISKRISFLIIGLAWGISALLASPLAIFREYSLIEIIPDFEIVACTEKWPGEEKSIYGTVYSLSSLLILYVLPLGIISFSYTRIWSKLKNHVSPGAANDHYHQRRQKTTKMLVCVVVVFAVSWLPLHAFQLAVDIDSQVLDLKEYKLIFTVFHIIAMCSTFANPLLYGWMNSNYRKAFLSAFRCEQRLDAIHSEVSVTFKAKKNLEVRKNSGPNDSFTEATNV

What does the source list for `CC(C)c1ccc(NC(=O)c2cc(S(=O)(=O)NCC3COc4ccccc4O3)ccc2F)cc1` (centres undefined)?
EC50 (Streptococcus [1]): > 500 µM (not active); EC50 [2]: 12.2 µM (active); EC50 (Streptococcus [3]): 74.4 µM (active); EC50 (Streptokinase A): 3.53 µM (active)

Which EC50 [4] does the source give for `Nc1ccc2nc(-c3ccccc3)sc2c1` here?
Its EC50 is 2.44 µM (active).

And the EC50 (HT-1080)?
Its EC50 is > 50 µM (not active).

What about the IC50 (Protein skinhead-1) of the same compound?
Its IC50 is 55.9 µM (inactive).

And the EC50 [5]?
Its EC50 is 23.5 µM (active).

What about the EC50 [6] of the same compound?
Its EC50 is 0.958 µM (active).

For `CC(C)CCN1CCc2nc(COc3ccccc3)c3c(c2C1)COC(C)C3` (centres undefined), which AC50 (Cytochrome P450 2C9) is on record?
The AC50 was 6.31 µM (inconclusive).

Which IC50 [7] does the source give for `COc1ccc(-c2c3c(cc(C)[n+]2[O-])oc2ccc(OC)cc23)cc1` here?
Its IC50 is 22 µM (active).

For `Oc1cc2c(cc1C(c1ccc(Cl)cc1)N1CCOCC1)OCO2` (centres undefined), which IC50 [8] is on record?
Its IC50 is 10.3 µM (not active).

For `CC1(c2ccccc2)CC(C)(C)N2C(=O)/C(=C3\SC(=S)NC3=O)c3cccc1c32` (centres undefined), which IC50 [9] is on record?
Its IC50 is 1.18 µM (active).

And the EC50 [2]?
The EC50 was 0.435 µM (active).

And the IC50 [10]?
The IC50 was 9.92 µM (active).

And the EC50 (Streptococcus [3])?
Its EC50 is 3.08 µM (active).

And the EC50 (Streptokinase A)?
Its EC50 is > 150 µM (not active).

With `COc1ccc(-c2nc(C#N)c(NC(C)c3ccccc3)o2)cc1OC` (centres undefined) as the compound, how does the IC50 [11] read?
Its IC50 is 7.77 µM (active).

What about the IC50 [12] of the same compound?
Its IC50 is 3.55 µM (active).
